Measurements published in doi:10.1101/2025.03.14.643404, “A Bivalent Molecular Glue Linking Lysine Acetyltransferases to Oncogene-induced Cell Death” (bioRxiv, 2025).

Tested on: H2BK20ac
Experiment: ChIP-seq for H2BK20ac in SUDHL5
Assay type: cell-based, human
Details: SUDHL5, 1 nM, 1 hour
Description: 25–30 million cells were treated with TCIP3 or DMSO for indicated timepoints. Cells were washed in PBS containing TCIP3 or DMSO and crosslinked for 11 min in CiA Fix Buffer (50 mM HEPES pH 8.0, 1 mM EDTA, 0.5 mM EGTA, 100 mM NaCl) with addition of formaldehyde to a final concentration of 1%. The crosslinking reaction was quenched by glycine added at 0.125 M final concentration. Crosslinked cells were centrifuged at 1,000 × g for 5 min. […] Library size distributions were confirmed using an Agilent Bioanalyzer and High Sensitivity DNA reagents (Agilent 5067) and concentrations determined by qPCR. […]
The data quality was checked using fastq (https://www.bioinformatics.babraham.ac.uk/projects/fastqc/). The raw reads were trimmed from adapters with cutadapt (parameters: -a […] -A […]) and raw reads were aligned to hg38 human genome assembly using bowtie2 (parameters: --local --maxins 1000). Low quality reads, duplicated reads and reads with multiple alignments were removed using samtools[120] and Picard (https://broadinstitute.github.io/picard/). macs2[121] was used to map position of peaks with FDR cutoff of 0.05. […] All browser tracks and metaprofiles shown were calculated with sequence-depth-normalized, replicate-merged (bigWigMerge[125]) and, for ChIP-seq, input-subtracted data (deeptools bigWigCompare). […]

CNC(=O)COc1cc2cc(Nc3nc(N4CCC(C(=O)N5CCN(CCC(=O)N6CCC(n7nc(N8CCCc9cc(-c%10cnn(C)c%10)c(C(F)F)cc98)c8c7CCN(C(=O)NC)C8)CC6)CC5)CC4)ncc3Cl)cc(OC)c2n(C)c1=O [TCIP3]
H2BK20ac peaks gained: 936
H2BK20ac peaks lost: 4,346
